system: genotype 1/2 chimeric cell culture derived HCV (HCVcc); experiment: Genotype 1/2 chimeric HCVcc assay (nano-luciferase, HCV replication); assay type: cell-based; settings: Hepatitis C virus
How it was run: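 EC50 (replication, nano-luciferase) and CC50 (viability, cellular ATP) were determined by non-linear regression 72 h after infection with a reporter HCVcc chimera carrying genotype 1a structural and 2a JFH-1 non-structural proteins. Compound was applied to Huh-7.5 cells 2 h before inoculation.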

SMILES	EC50 [nM]
O=C(CCCN1CCC(N2CCCCC2)CC1)Nc1ccc(-c2ccc(C(F)(F)F)cc2)c(F)c1 [Compound 1113]	100 to 1000
O=C(NCCCN1CCC(N2CCCCC2)CC1)c1ccc(-c2ccc(C(F)(F)F)cc2)nc1 [Compound 1080]	100 to 1000
N#Cc1cc(NC(=O)CCCN2CCC(N3CCCCC3)CC2)ccc1-c1ccc(C(F)(F)F)cc1 [Compound 1159]	100 to 1000
O=C(NCCCN1CCC(N2CCCCC2)CC1)c1cc2c(s1)CCCC2 [Compound 1002]	> 10000
O=C(NCCCN1CCC(Cc2ccccc2)CC1)c1ccc(Oc2ccccc2)cc1 [Compound 1042]	1000 to 10000
O=C(NCCCCCCN1CCC(N2CCCCC2)CC1)c1ccc(Oc2ccccc2)cc1 [Compound 1088]	100 to 1000
O=C(NCCCN1CCC(N2CCCCC2)CC1)c1ccc(-c2cccc(CN3CCOCC3)c2)cc1 [Compound 1143]	1000 to 10000
O=C(NCCCN1CCC(N2CCCCC2)CC1)c1cccc(Oc2cccc(C(F)(F)F)c2)c1 [Compound 1107]	100 to 1000
O=C(NCCCN1CCC(c2ccccc2)CC1)c1ccc(Oc2ccccc2)cc1 [Compound 1041]	1000 to 10000
O=C(NCCCN1CCC(N2CCCCC2)C1)c1ccc(Oc2ccccc2)cc1 (stereo not drawn) [Compound 1084]	> 10000
O=C(NCCCN1CCC(N2CCCCC2)CC1)c1ccc(-c2ccc(C(F)(F)F)cc2)c(C(F)(F)F)c1 [Compound 1105]	100 to 1000
O=C(NCCCN1CCC(N2CCCCC2)CC1)C1=Cc2sc3c(c2CS1)CCCC3 [Compound 1001]	100 to 1000
O=C(NCCCN1CCC(N2CCCCC2)CC1)c1ccc(-c2ccc3cc[nH]c3c2)cc1 [Compound 1121]	100 to 1000
O=C(NCCCN1CCC(N2CCCCC2)CC1)c1ccc(-c2ccc(C(F)(F)F)cc2)cc1C(F)(F)F [Compound 1104]	100 to 1000
Cc1ccc(-c2ccc(C(=O)NCCCN3CCC(N4CCCCC4)CC3)cc2)cc1 [Compound 1016]	100 to 1000
O=C(CCCN1CCC(N2CCCCC2)CC1)Nc1ccc(-c2ccc(C(F)(F)F)cc2)cc1F [Compound 1114]	100 to 1000
O=C(NCCCN1CCC(N2CCCCC2)CC1)c1ccc(N2CCOCC2)cc1 [Compound 1029]	> 10000
O=S(=O)(NCCCCN1CCC(N2CCCCC2)CC1)c1ccc(-c2ccc(C(F)(F)F)cc2)cc1 [Compound 1095]	100 to 1000
O=C(NCCCN1CCC(N2CCCCC2)CC1)Nc1ccc(-c2ccc(C(F)(F)F)cc2)cc1 [Compound 1118]	100 to 1000
O=C(NCCCN1CCC(N2CCCCC2)CC1)c1ccc(-c2ccc([N+](=O)[O-])cc2)cc1 [Compound 1122]	100 to 1000

same assay, conditions: Hepatitis C virus, Huh7.5, 72 h

SMILES	EC50 [nM]
C#CCN1CCc2c(sc(-n3cccc3)c2CNC(=O)Nc2sc3c(c2C(=O)OC(C)(C)C)CCCC3)C1 [Compound 325]	< 100
CCOC(=O)c1c(NC(=O)NCc2c(-n3cccc3)sc3c2CCNC3)sc2ccccc12 [Compound 63]	100 to 1000
Cc1nnc(-c2c(NC(=O)NCc3c(-n4cccc4)sc4c3CCN(C)C4)sc3c2CCCC3)o1 [Compound 65]	< 100
CCN1CCc2c(sc(Br)c2CNC(=O)Nc2sc3c(c2C(=O)OC)CCCC3)C1 [Compound 177]	< 100
CC(C)N1CCc2c(sc(C(F)(F)F)c2CNC(=O)Nc2sc3c(c2C(=O)OC(C)(C)C)CCCC3)C1 [Compound 186]	< 100
CCOC(=O)c1c(NC(=O)NCc2c(-c3ccccc3)sc3c2CCNC3)sc2c1CCCC2 [Compound 62]	100 to 1000
COC(=O)c1c(NC(=O)NCc2c(C(F)(F)F)sc3c2CCNC3)sc2c1CCCC2 [Compound 129]	< 100
CCN1CCc2c(sc(Br)c2CNC(=O)Nc2sc3c(c2C(=O)OC(C)(C)C)CCC3)C1 [Compound 300]	< 100
COC(=O)c1c(NC(=O)NCc2c(Br)sc3c2CCN(C)C3)sc2c1CCCC2 [Compound 175]	< 100
CC1CCCc2sc(NC(=O)NCc3c(C(F)(F)F)sc4c3CCNC4)c(C(=O)OC(C)(C)C)c21 (stereo not drawn) [Compound 265]	< 100
N#Cc1c(NC(=O)NCc2c(-n3cccc3)sc3c2CCCC3)sc2c1CCCC2 [Compound 6]	1000 to 10000
O=C(NCc1c(-n2cccc2)sc2c1CCNC2)Nc1sc2c(c1C(=O)NCC1CCCCC1)CCCC2 [Compound 83]	1000 to 10000
CCN1CCc2c(sc(-n3cccc3)c2CNC(=O)Nc2sc3c(c2C(=O)NCCCCN)CCCC3)C1 [Compound 91]	100 to 1000
Cn1ccc(-c2sc3c(c2CNC(=O)Nc2sc4c(c2C(=O)OC(C)(C)C)CCCC4)CCNC3)c1 [Compound 182]	< 100
CCOC(=O)c1c(NC(=O)NCc2c(-n3cccc3)sc3c2CCN(CC(C)C)C3)sc2c1CCCC2 [Compound 27]	< 100
CC1CCc2c(sc(NC(=O)NCc3c(C(F)(F)F)sc4c3CCNC4)c2C(=O)OC(C)(C)C)C1 (stereo not drawn) [Compound 212]	< 100
CC(C)(C)OC(=O)c1c(NC(=O)NCc2c(-c3ccnc(Cl)c3)sc3c2CCNC3)sc2c1CCCC2 [Compound 308]	< 100
Cc1nnc(-c2c(NC(=O)NCc3c(-n4cccc4)sc4c3CCN(C)C4)sc(C)c2C)o1 [Compound 74]	< 100
CCOC(=O)c1c(NC(=O)NCc2csc3c2CCCC3)sc2c1CCCC2 [Compound 35]	< 100
CCc1sc(NC(=O)NCc2c(C(F)(F)F)sc3c2CCNC3)c(C(=O)OC(C)(C)C)c1C [Compound 270]	< 100
O=C(NCc1c(C(F)(F)F)sc2c1CCNC2)Nc1sc2c(c1C(=O)OC1CCCCC1)CCCC2 [Compound 272]	< 100
Cc1sc(NC(=O)NCc2c(C(F)(F)F)sc3c2CCNC3)c(C(=O)OC(C)C)c1C [Compound 217]	< 100
CC(C)(C)OC(=O)c1c(NC(=O)NCc2c(-c3ccc(Cl)nc3)sc3c2CCNC3)sc2c1CCCC2 [Compound 307]	< 100
CCOC(=O)c1c(NC(=O)C(=O)NCc2c(-n3cccc3)sc3c2CCNC3)sc2c1CCCC2 [Compound 86]	1000 to 10000
CC(C)(C)OC(=O)c1c(NC(=O)NCc2c(Br)sc3c2CCNC3)sc2c1CCOC2 [Compound 239]	< 100
CCOC(=O)c1c(NC(=O)NCc2csc(CN(C)C)c2C)sc2c1CCCC2 [Compound 188]	< 100
CC(C)(C)OC(=O)c1c(NC(=O)NCc2c(-c3ccc(F)nc3)sc3c2CCNC3)sc2c1CCCC2 [Compound 309]	< 100
CC(C)(C)OC(=O)c1c(NC(=O)NCc2c(-n3cccc3)sc3c2CCN(C2CCC2)C3)sc2c1CCCC2 [Compound 260]	< 100

SMILES	EC50 [nM]
CCN1CCc2c(sc(-n3cccc3)c2CNC(=O)Nc2ccccc2C(=O)OC)C1 [Compound 10]	> 10000
CCc1sc2c(c1CNC(=O)Nc1sc3c(c1C(=O)OC(C)(C)C)CCC(C)C3)CCNC2 (stereo not drawn) [Compound 289]	< 100
CN1CCN(c2sc3c(c2CNC(=O)Nc2sc4c(c2C(=O)OC(C)(C)C)CCCC4)CCNC3)CC1 [Compound 144]	100 to 1000
CN1CCc2c(sc(Br)c2CNC(=O)Nc2sc3c(c2C(=O)OC(C)(C)C)CCCC3)C1 [Compound 185]	< 100
CC(C)(C)OC(=O)c1c(NC(=O)NCc2c(-c3ccoc3)sc3c2CCNC3)sc2c1CCCC2 [Compound 183]	< 100
CC1CCCc2sc(NC(=O)NCc3c(-n4cccc4)sc4c3CCN(C)C4)c(C(=O)OC(C)(C)C)c21 (stereo not drawn) [Compound 291]	< 100
CC(C)(C)OC(=O)c1c(NC(=O)NCc2c(-c3ccco3)sc3c2CCNC3)sc2c1CCCC2 [Compound 340]	< 100
CCN1CCc2c(sc(-n3cccc3)c2CNC(=O)Nc2sc3c(c2C(=O)NN2CCN(C)CC2)CCCC3)C1 [Compound 253]	100 to 1000
CN1CCc2c(sc(C(F)(F)F)c2CNC(=O)Nc2sc3c(c2C(=O)OC(C)(C)C)CCCCC3)C1 [Compound 281]	< 100
CC(C)OC(=O)c1c(NC(=O)NCc2c(-c3ccccc3)sc3c2CCNC3)sc2c1CCCC2 [Compound 226]	< 100
Cc1sc(NC(=O)NCc2c(-c3cccc(Cl)c3)sc3c2CCNC3)c(C(=O)OC(C)(C)C)c1C [Compound 363]	< 100
Cc1nnc(-c2c(NC(=O)NCc3c(-n4cccc4)sc4c3CCNC4)sc3c2CCCC3)o1 [Compound 60]	100 to 1000
Cc1nnc(-c2c(NC(=O)NCc3c(-n4cccc4)sc4c3CCNC4)sc(C)c2C)o1 [Compound 72]	100 to 1000
CC(C)(C)OC(=O)c1c(NC(=O)NCc2c(-n3cccc3)sc3c2CCN(C2COC2)C3)sc2c1CCCC2 [Compound 261]	< 100
Cc1cc(C(=O)OC(C)(C)C)c(NC(=O)NCc2c(C(F)(F)F)sc3c2CCNC3)s1 [Compound 347]	< 100
CCN1CCc2c(sc(-n3cccc3)c2CNC(=O)Nc2sc3c(c2C(=O)OC(C)(C)C)CC(C)CC3C)C1 (stereo not drawn) [Compound 294]	< 100
CC(C)(C)OC(=O)c1c(NC(=O)NCc2c(-n3cccc3)sc3c2CCNC3)sc2c1CCCC2 [Compound 106]	< 100
Cc1cncc(-c2sc3c(c2CNC(=O)Nc2sc4c(c2C(=O)OC(C)(C)C)CCCC4)CCNC3)c1 [Compound 322]	100 to 1000
CN1CCc2c(sc(C(F)(F)F)c2CNC(=O)Nc2sc3c(c2C(=O)OC(C)(C)C)CCCC3)C1 [Compound 184]	< 100
CCOC(=O)c1c(NC(=O)NCc2c(-n3cccc3)sc3c2CCN(CC)C3)sc2c1C(C)CCC2 (stereo not drawn) [Compound 151]	< 100
Cc1sc(NC(=O)NCc2c(C(F)(F)F)sc3c2CCN(C)C3)c(C(=O)OC(C)C)c1C [Compound 295]	< 100
CCN(C)Cc1sc(-n2cccc2)c(CNC(=O)Nc2sc3c(c2C(=O)OC(C)(C)C)CCCC3)c1C [Compound 136]	< 100
CCOC(=O)c1c(NC(=O)NCc2c(C)sc3c2CCNC3)sc2c1CCCC2 [Compound 107]	< 100
CCOC(=O)c1c(NC(=O)NCc2c(C(F)(F)F)sc3c2CCN(C(=O)[C@H](C)N)C3)sc2c1CCCC2 [Compound 327]	< 100
CCOC(=O)c1c(NC(=O)C(=O)NCc2c(-n3cccc3)sc3c2CCN(CC)C3)sc2c1CCCC2 [Compound 78]	< 100
CCOC(=O)c1c(NC(=O)NCc2c(Br)sc3c2CCN(CC)C3)sc2c1CCCC2 [Compound 110]	< 100
CCN1CCc2c(sc(-n3cccc3)c2CNC(=O)Nc2sc3c(c2C(N)=O)CCCC3)C1 [Compound 37]	100 to 1000
